{
  "source": "patent US20050123602A1",
  "about": "“Rifalazil formulations” (priority 2003, published 2005)",
  "test": "Pharmacokinetics after single peroral administration of 5 mg rifalazil, fed and fasted",
  "assay_type": "in vivo, beagle dogs",
  "settings": "dogs, liquid-filled vs microgranulated",
  "experimental": "Pharmacokinetic parameters were determined following a single peroral administration of 5 mg of rifalazil in healthy male beagle dogs. The rifalazil was formulated either as a liquid-filled capsule of Example 3 or as a powder-filled capsule containing microgranulated rifalazil as described in U.S. Pat. No. 5,547,683.\nBoth formulations were administered under fed and fasted conditions. All animals were fasted overnight prior to dosing. Animals designated as “fed” were administered a blended combination of dog chow and water in a 1:3 ratio (e.g. 250 g chow and 750 g water) via oral gavage at a dose volume of 20 mL/kg within approximately 30 minutes prior to dosing and food was provided Ad-libitum after approximately 4 hours following dosing. Animals in “fasted” groups were not fed prior to dosing and food was withheld until after approximately 4 hours after dosing. […]\nPharmacokinetic endpoints and parameters were calculated by noncompartmental analysis (NCA) using WinNonlin®.\nThe pharmacokinetic parameters Tmax, Cmax, AUCt, AUC∞, T1/2 (elimination), and F (bioavailability) were calculated as well as the coefficient of variation (CV) in each. […]",
  "data": [
    {"compound": "CO[C@H]1/C=C/O[C@@]2(C)Oc3c(C)c(O)c4c(=O)c(c5oc6cc(N7CCN(CC(C)C)CC7)cc(O)c6nc-5c4c3C2=O)NC(=O)/C(C)=C\\C=C\\[C@H](C)[C@H](O)[C@@H](C)[C@@H](O)[C@@H](C)[C@H](OC(C)=O)[C@@H]1C", "note": "[rifalazil, Rifalazil]", "values": [
      {"measurement": "effect of changes in the formulation upon elimination half-life (T1/2)", "result": "no effect"}
    ]}
  ]
}
